Counter-ions that a name gives are not always drawn.
Legend:
[1] = target: T1, VDR (Homo sapiens, UniProt P11473); assay: VDR activation, NR selectivity assay; format: biochemical; conditions: Table 6
T1 construct: purchased Invitrogen
T1 sequence (P11473 127-423 limits assumed): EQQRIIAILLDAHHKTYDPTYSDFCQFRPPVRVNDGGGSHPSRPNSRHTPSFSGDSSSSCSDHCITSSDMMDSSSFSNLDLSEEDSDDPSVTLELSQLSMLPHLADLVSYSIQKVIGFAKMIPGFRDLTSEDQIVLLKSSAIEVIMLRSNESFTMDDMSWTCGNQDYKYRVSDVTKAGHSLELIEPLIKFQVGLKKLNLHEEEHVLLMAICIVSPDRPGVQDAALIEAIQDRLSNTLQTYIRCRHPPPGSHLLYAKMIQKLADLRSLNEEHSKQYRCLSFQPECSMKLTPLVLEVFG

[2] = Critical micellar concentration by surface tension measurements; format: physicochemical
Protocol: The critical micellar concentration (CMC) was determined by surface tension (ST) measurements using a maximum bubble-pressure method which give surface tension values slightly affected by potential impurities […] static methods. […] The surface tension values were plotted against the logarithm of the bile salt concentration; the regression lines corresponding to the two parts of the curve (monomeric and micellar phases) were calculated using the method of least squares, and the intersection of the lines was taken as the CMC value. From the ST vs concentration curves the value of the surface tension at the CMC (equilibrium between monomers and multimers species) was also calculated giving information about the detergency power which is related to the size of the micelles with associate surface tension lowering capacity. The CMC was evaluated by surface tension measurements in non equilibrium conditions i.e. in conditions that impurities slightly affect the surface tension results (FIG. 6). […] The presence of a hydroxyl group in the C-16 beta position reduces the hydrophobic area responsible for back to back interaction, which is to form micelles and therefore, the micelles are small and poorly detergent. This property confers to the molecule a low toxicity when accumulated in a given biological fluid or organ.

[3] = target: T2, PPARδ (Homo sapiens, UniProt Q03181); assay: PPARδ activation, NR selectivity assay; conditions: Table 6
T2 sequence (Q03181 211-439 limits assumed): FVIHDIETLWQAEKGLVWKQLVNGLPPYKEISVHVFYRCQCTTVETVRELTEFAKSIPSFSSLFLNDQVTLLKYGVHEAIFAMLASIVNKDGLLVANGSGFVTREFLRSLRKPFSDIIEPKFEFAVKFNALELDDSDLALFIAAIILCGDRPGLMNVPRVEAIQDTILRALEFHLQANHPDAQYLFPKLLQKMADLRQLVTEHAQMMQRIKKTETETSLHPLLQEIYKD

[4] = target: T3, hFXR (Homo sapiens, UniProt Q96RI1); assay: Alphascreen coactivator recruitment assay on FXR
T3 sequence (Q96RI1 262-486 limits assumed): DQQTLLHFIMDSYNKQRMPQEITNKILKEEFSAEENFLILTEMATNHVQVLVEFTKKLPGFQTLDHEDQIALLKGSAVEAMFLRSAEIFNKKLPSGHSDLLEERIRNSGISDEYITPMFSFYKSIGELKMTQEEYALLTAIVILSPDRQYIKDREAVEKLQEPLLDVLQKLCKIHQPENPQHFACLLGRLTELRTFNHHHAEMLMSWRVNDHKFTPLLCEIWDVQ
Protocol: Activity on FXR was assayed by using Alphascreen technology in a coactivator recruitment assay. AlphaScreen is a bead-based chemistry assay used to study biomolecular interactions. Binding of molecules captured on the beads leads to an energy transfer from one bead to the other, ultimately producing a luminescent signal. When the partners interact, chemical energy is transferred from Donor to Acceptor beads and a signal is produced. Upon bile acids stimulation the GST-FXR-LBD interacts with the Src-1 peptide. Anti-GST-coated Acceptor beads were used to capture the GST-fusion FXR-LBD whereas the biotinylated-SRC-1 peptide was captured by the streptavidin Donor beads. Upon illumination at 680 nm chemical energy is transferred from Donor to Acceptor beads across the complex streptavidin-Donor/Src-1-Biotin/GSTFXR-LBD/Anti-GST-Acceptor and a signal is produced. The assay was performed in white, low-volume, 384-well Optiplates (PerkinElmer) using a final volume of 25 μl containing final concentrations of 10 nM of purified GST-tagged FXR-LBD protein, 30 nM biotinylated Src-1 peptide, 20 μg/ml anti-GST acceptor beads acceptor beads and 10 μg/ml of streptavidin donor bead (PerkinElmer). […] After the addition of the detection mix (acceptor and donor beads), the plates were incubated in the dark for 4 h at room temperature and then were read with an Envision microplate analyzer (PerkinElmer). […]

[5] = 1-Octanol/water partition coefficient (shake-flask); conditions: bile acids as ionized species, pH 8
Protocol: The octanol/water partition coefficient was measured for molecules in their ionized form and therefore the carboxy analogues were studied at a relatively high pH (8 to 9) to ensure full ionization of the carboxyl group. The 1-Octanol/water partition coefficient (log P) was evaluated using a conventional shake-flask procedure. […] The aqueous buffer was previously pre-saturated with 1-octanol, 5 ml of 1-octanol pre-saturated with water was then added and the samples were left to equilibrate for 2 weeks under continuous stirring at room temperature. After centrifugation the two phases were carefully separated. […] The flow rate was 150 μal/min and the column was maintained at 45° C.

[6] = Bile fistula rat, femoral (iv) infusion: bile flow, biliary secretion, metabolism; conditions: for Conc. in bile: rat bile; for Secretion (biliary): rat
[7] = Bile fistula rat, duodenal (id) infusion: bile flow, biliary secretion, metabolism; conditions: for Intestinal absorption: biliary secretion id versus iv; for Conc. in bile: rat bile; for Secretion (biliary): rat
[8] = target: T4, hTGR5 (Homo sapiens, UniProt Q8TDU6); assay: FRET assay (intracellular cAMP) in NCI-H716 cells; format: cell-based; set-up: Human intestinal cell lines (NCI-H716) were plated in 96-well plates; endogenous in cells; host or cells: NCI-H716
T4 sequence (Q8TDU6 1-330): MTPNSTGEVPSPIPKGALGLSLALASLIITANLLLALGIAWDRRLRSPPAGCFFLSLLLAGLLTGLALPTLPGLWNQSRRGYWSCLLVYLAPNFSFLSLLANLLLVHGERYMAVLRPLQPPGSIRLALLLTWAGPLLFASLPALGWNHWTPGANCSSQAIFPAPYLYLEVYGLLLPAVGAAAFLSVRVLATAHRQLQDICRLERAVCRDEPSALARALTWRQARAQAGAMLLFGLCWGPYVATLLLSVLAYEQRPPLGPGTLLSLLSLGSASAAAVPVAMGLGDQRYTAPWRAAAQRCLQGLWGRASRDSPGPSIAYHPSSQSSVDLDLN
Protocol: The receptor binding assay was performed by measuring the level of cyclic AMP (cAMP) using FRET assay. Human intestinal cell lines (NCI-H716) were plated in 96-well plates coated with 0.75 mg/ml Matrigel (BD Biosciences) according to manufacturer's instructions just prior to use, at a density of 12×10^3 cells/well in DMEM supplemented with 10% (v/v) FBS, 100 units/ml penicillin and 100 μg/ml streptomycin sulfate, and cultured for 24 h, which allowed cell adhesion to the bottom of the plate. The cells were washed twice with PBS and medium was exchanged for cAMP assay medium [OPTIMEM containing 0.1% (w/v) BSA and 1 mM 3-isobutyl-1-methylxanthine (IBMX)]. […] The level of intracellular cAMP was determined with Lance kit (PerkinElmer). Litocholic acid was used as control ligand. Z′ factor was used to validate assays. Non linear regression curves, without constraints, were performed by using four parameter equation and GraphPad Prism Software (GraphPad Inc.), to obtain the EC50 values.
After subtracting the average value of the basal (vehicle-treated) condition, values were applied to EC50 and/or efficacy determinations. Calculation of average EC50 and comparison of the EC50 between different compounds were done after transformation to logarithms.

[9] = bile fistula rat, mass spectrometry
[10] = femoral infusion 1 μmol/kg/min 1 h, 75 min
[11] = duodenal infusion 1 μmol/kg/min 1 h, 90 min

## CC[C@H]1[C@@H](O)[C@@H]2[C@H](CC[C@]3(C)[C@@H]([C@H](C)CCC(=O)O)[C@@H](O)C[C@@H]23)[C@@]2(C)CC[C@@H](O)C[C@@H]12 [Compound 10, 3α,7α,16β-trihydroxy-6α-ethyl-5β-cholan-24-oic acid sodium salt]
[1]
  VDR Activation EC50: No activity
[2]; NaCl […]
  Detergency (CMC and surface tension lowering capacity): moderate detergent
[2]; […] NaCl water solution
  CMC […] Na+: 5.9 mM
  STCMC: Surface Tension at CMC: 52.4 Dyne/cm
[3]
  PPARδ Activation EC50: No activity
[4]
  EC50: 12000 nM
[5]
  LogPA-: 1-octanol-water partition coefficient: 1.6
[6]; [9]
  Hepatic metabolism, species in bile after iv administration: secreted in bile as such and mainly conjugated with taurine
[6]; [10]
  Conc. in bile: 40 µM
  Secretion (biliary): 0.002 µmol/kg/min
[6]; femoral infusion 1 μmol/kg/min, bile fistula rat
  Biliary secretion after iv infusion: not efficient
[6]; femoral infusion, 90 min
  Conc. in bile: 2300 µM
  Secretion (biliary): 0.127 µmol/kg/min
[6]; femoral infusion, 120 min
  Conc. in bile: 900 µM
  Secretion (biliary): 0.065 µmol/kg/min
[6]; femoral infusion, 150 min
  Conc. in bile: 60 µM
  Secretion (biliary): 0.004 µmol/kg/min
[6]; femoral infusion, 180 min
  Conc. in bile: 40 µM
  Secretion (biliary): 0.003 µmol/kg/min
[6]; femoral infusion, 210 min
  Conc. in bile: 20 µM
  Secretion (biliary): 0.001 µmol/kg/min
[7]; [9]
  Metabolism, species in bile after id administration: recovered as such and mainly metabolised to form the taurine conjugates
[7]; bile fistula rat, listed as compound 10, sodium salt
  Intestinal absorption: poor intestinal absorption
[7]; bile fistula rat, sodium salt
  Intestinal absorption: efficient
[7]; [11]
  Conc. in bile: 10 µM
  Secretion (biliary): 0.0004 µmol/kg/min
[7]; duodenal infusion 1 μmol/kg/min, 1 hour, bile fistula rat
  Choleretic effect (bile flow): not choleretic
[7]; duodenal infusion, 120 min
  Conc. in bile: 70 µM
  Secretion (biliary): 0.003 µmol/kg/min
[7]; duodenal infusion, 150 min
  Conc. in bile: 390 µM
  Secretion (biliary): 0.019 µmol/kg/min
[7]; duodenal infusion, 180 min
  Conc. in bile: 140 µM
  Secretion (biliary): 0.003 µmol/kg/min
[7]; duodenal infusion, 210 min
  Conc. in bile: 90 µM
  Secretion (biliary): 0.004 µmol/kg/min
[7]; duodenal infusion, 240 min
  Conc. in bile: 30 µM
  Secretion (biliary): 0.001 µmol/kg/min
[7]; duodenal infusion, 270 min
  Conc. in bile: 20 µM
  Secretion (biliary): 0.001 µmol/kg/min
[7]; duodenal infusion, 300 min
  Conc. in bile: 20 µM
  Secretion (biliary): 0.001 µmol/kg/min
[8]; FRET (cAMP) NCI-H716 hTGR5 EC50, Table 1, NCI-H716 cells
  EC50: 650 nM
[8]; TGR5 Activation EC50, Table 6, cAMP level on NCI-H716
  EC50: 600 nM

From US8999964B2, “TGR5 modulators and methods of use thereof” (Intercept Pharmaceuticals, Inc., priority 2008, dated 2015)
